Results: patent US6670351B1, “Method for ameliorating muscle weakness/wasting in a patient infected with human immunodeficiency virus-type 1” (Bio-Technology General Corporation, priority 1992, dated 2003)
Read-outs that look alike come from different tables or passages of the source.

Legend:
[1] = system: patients with uterine cervical cancer; conditions: administered parentally; cited from earlier work
[2] = system: HIV-associated myopathy and muscle weakness/wasting; test: Case example: HIV-seropositive patient with HIV-associated myopathy and muscle weakness/wasting; type: in vivo, human; conditions: for return to previous levels of function and strength: trial after oxandrolone was no longer obtainable
Source text: A patient, a homosexual person, known to be HIV-seropositive since February 1989, noted difficulty opening drawers and bottles in May 1989. […] However, their muscle stretch reflexes remained normal.
They complained of an inability to ascend a flight of stairs. […] The patient's creatine kinase tested at 456 Units per liter. […] Round cell inflammatory infiltrates were also noted. In light of these developments, the zidovudine treatment was terminated.
Substantial improvement initially followed the discontinuation of zidovudine. However, because of a subsequent continued and progressive weakness rendering it difficult for the patient to ascend or descend a flight of stairs, a prednisone therapy (60 mg daily) was initiated.
Thereafter, a trial period of oral oxandrolone administration (2.5 milligrams, three times daily, in tablet form) was initiated. […] The patient's weight increased from 115 pounds to 130 pounds. The patient's muscle atrophy was alleviated as well.
After several months of the aforementioned therapy with oxandrolone, the patient was no longer able to obtain oxandrolone for use as a medication. Weakness and weight loss ensued.

acute uremic rats = conditions: cited from earlier work
chronic renal failure = conditions: cited from earlier work
[3] = cited from earlier work
[4] = published parameter; cited from earlier work
[5] = system: patients with acute alcoholic hepatitis; conditions: cited from earlier work
[6] = oral 2.5 milligrams three times daily
[7] = man, oral 10 milligram dose, biphasic decline

For `CCCCCCCCCC(=O)O[C@H]1CC[C@H]2[C@@H]3CCC4=CC(=O)CC[C@@H]4[C@H]3CC[C@]12C` [nandrolone decanonate], the “macrophage activity and cell-mediated immunity” value [1] is given as “enhanced macrophage activity and cell-mediated immunity”.

In the case of `CC1(O)CC[C@H]2[C@@H]3CCC4CC(=O)OC[C@]4(C)[C@H]3CC[C@@]21C` (stereo partly shown) [oxandrolone, 17-hydroxy-17-methyl-2-oxaandrostan-3-one], the “ability to use stairs within one month” value [2, 6] is reported as “able to ascend and descend stairs without problems”, the muscle atrophy [2, 6] is reported as “alleviated” and the “strength by confrontation testing” value [2, 6] is reported as “nearly normal strength”. For the same compound, the “liver functions / side effects” value ([2]; oral 2.5 milligrams three times daily, liver functions closely monitored) was “undesirable side effects were not detected”, the “patient's well being, strength and weight within two weeks” value ([2]; oral 2.5 milligrams three times daily, tablet) was “improved sense of well being, became stronger, and gained weight” and the “patient's weight after therapy” value ([2]; oral 2.5 milligrams three times daily, increased from 115 pounds) was 130 pounds. For the same compound, the muscle protein synthesis (acute uremic rats) was “increased muscle protein synthesis”, the “clinical improvement after administration” value (chronic renal failure) was “clinical improvement in appetite, cell mass, linear growth, and weight for height” and the “urinary excretion of the administered dose” value ([3]; after 96 hours) was “approximately 65%”. The distribution half-life [3, 7] was “approximately 30 minutes”, the elimination half-life [3, 7] was 9.4 h and the absorption ([3]; man, oral 10 milligram dose) was “rapidly and completely absorbed”. The “time of mean peak plasma concentration” value ([3]; man, oral 10 milligram dose) was 66 min, the protein binding ([3]; man) was “extensive” and the fecal excretion ([3]; over the same time period (96 hours)) was “less than 3%”. For the same compound, the form of excretion ([3]; taken orally) was “excreted mainly unchanged and unconjugated in urine”, the “urinary excretion of an oral dose” value ([3]; within 72 hours after ingestion) was “approximately 35%” and the “Biological T½” value [4] was 9.4 hr. For the same compound, the Glucuronidation [4] was “Little”, the Metabolism [4] was “Little” and the “Oral Bioavailability” value [4] was 100%. The “Plasma Clearance” value [4] was 0.717 mL/min/kg, the Tmax [4] was 1.1 h and the Vd [4] was 0.578 L/kg. The “protein binding” value [4] was over 95%, the drug-related nephrotoxicity ([5]; daily doses up to 80 mg/day for four weeks and 40 mg/day for eight weeks) was “did not result in any drug-related nephrotoxicity” and the lymphocyte number ([5]; patients with severe alcoholic hepatitis) was “significantly improved lymphocyte number”.

For `C[C@]12C/C(=C/O)C(=O)C[C@@H]1CC[C@@H]1[C@@H]2CC[C@@]2(C)[C@H]1CC[C@]2(C)O` [oxymethalone], the “return to previous levels of function and strength” value [2] was “did not return the patient to their previous levels of function and strength”.

For `C[C@]12C=CC(=O)C=C1CC[C@@H]1[C@@H]2C(=O)C[C@@]2(C)[C@H]1CC[C@]2(O)C(=O)CO` [prednisone], the improvement of weakness ([2]; 60 mg daily) was “No significant improvement”.

In the case of `C[C@]12Cc3c[nH]nc3C[C@@H]1CC[C@@H]1[C@@H]2CC[C@@]2(C)[C@H]1CC[C@]2(C)O` [stanazol], the “return to previous levels of function and strength” value [2] is reported as “did not return the patient to their previous levels of function and strength”.
